Data: patent publication US12590066B2, “Fused-heterocyclyl-carbonohydrazonoyl dicyanide compounds and use thereof” (KOREA INSTITUTE OF SCIENCE AND TECHNOLOGY, priority 2020, dated 2026)

Tests used:
[1] = tested on: Tau-BiFC cells; assay: Cell viability (stained nuclei count) in Tau-BiFC cells; type: cell-based; conditions: 10 μM compound, 48 hours; Forskolin-only group = 100% cell viability
Procedure: In order to select novel tau protein aggregation-inhibiting substances, tau-BiFC cell model, in which formation of tau oligomers in living cells is easily observed, was used. Tau-BiFC cells were aliquoted into a 384-well plate. On the next day, the cells were treated with each of the compounds prepared according to Examples 1 to 57 at concentrations of 1 μM, 3 μM, and 10 μM, together with Forskolin (at a treatment concentration of 30 μM), which is a compound inducing tau protein aggregation by activating tau phosphorylase PKA. After 48 hours, nuclei in the cells were stained using Hoechst (at a treatment concentration of 2 μg/mL), and BiFC fluorescence intensity was automatically measured using Operetta (PerkinElmer) to count stained nuclei in each well out of the entire well plate. The group treated only with Forskolin, which induces tau protein aggregation, was set to a reference point of a 100% tau protein-aggregated state, and the effects of the compounds were confirmed using the equation “BiFC fluorescence intensity due to compound synthesized according to embodiment of present invention/(fluorescence intensity of control group treated only with Forskolin inducing tau protein aggregation−fluorescence intensity of untreated control group)×100”. Furthermore, the degree of cytotoxicity induced by the newly synthesized compound was also measured based on the 100% cell viability of the group treated only with Forskolin as a reference, and the cytotoxicity value of each compound was calculated using the equation “(number of stained nuclei in group treated with compound/number of stained nuclei in group treated with Forskolin)×100”. Based on the treatment results, substances inhibiting intracellular tau protein aggregation were selected from a series of candidate groups showing a tau protein aggregation inhibition rate of 70% or more and cell viability of 100% at a compound treatment concentration of 10 μM or more. […]

[2] = biological target: T1, tau protein (Homo sapiens, UniProt P10636); assay: Tau-BiFC cell model, inhibition of Forskolin-induced tau protein aggregation; type: cell-based; conditions: Forskolin 30 μM, 48 hours; for Tau BiFC in cells Response (% @10 μM): 10 μM compound, Forskolin-only group = 100% tau protein-aggregated state; for IC50: tau-BiFC cells
T1 construct: BiFC fluorescent-protein fragments (type and halves not specified); expressed in transfected cells
Procedure: In order to select novel tau protein aggregation-inhibiting substances, tau-BiFC cell model, in which formation of tau oligomers in living cells is easily observed, was used. Tau-BiFC cells were aliquoted into a 384-well plate. On the next day, the cells were treated with each of the compounds prepared according to Examples 1 to 57 at concentrations of 1 μM, 3 μM, and 10 μM, together with Forskolin (at a treatment concentration of 30 μM), which is a compound inducing tau protein aggregation by activating tau phosphorylase PKA. After 48 hours, nuclei in the cells were stained using Hoechst (at a treatment concentration of 2 μg/mL), and BiFC fluorescence intensity was automatically measured using Operetta (PerkinElmer) to count stained nuclei in each well out of the entire well plate. The group treated only with Forskolin, which induces tau protein aggregation, was set to a reference point of a 100% tau protein-aggregated state, and the effects of the compounds were confirmed using the equation “BiFC fluorescence intensity due to compound synthesized according to embodiment of present invention/(fluorescence intensity of control group treated only with Forskolin inducing tau protein aggregation−fluorescence intensity of untreated control group)×100”. Furthermore, the degree of cytotoxicity induced by the newly synthesized compound was also measured based on the 100% cell viability of the group treated only with Forskolin as a reference, and the cytotoxicity value of each compound was calculated using the equation “(number of stained nuclei in group treated with compound/number of stained nuclei in group treated with Forskolin)×100”. Based on the treatment results, substances inhibiting intracellular tau protein aggregation were selected from a series of candidate groups showing a tau protein aggregation inhibition rate of 70% or more and cell viability of 100% at a compound treatment concentration of 10 μM or more.
In order to evaluate dose-dependent tau protein aggregation inhibition effects of the compounds selected according to Experimental Example 1 on tau protein aggregation, tau-BiFC cells were treated with the selected compounds at concentrations of 0.03 μM, […], 0.3 μM, 1 μM, 3 μM, 10 μM, and 30 μM, respectively, together with Forskolin (at a treatment concentration of 30 μM), which is a tau protein aggregation-inducing substance. After 48 hours, tau protein aggregation reaction and degrees of cytotoxicity were analyzed by observing images of the cells. IC50 and toxicity of the compounds were analyzed by way of nonlinear regression analysis of prism software (Graph Pad).

[3] = Liver microsome stability; type: in vitro ADME; conditions: 1 μM compound, 37° C., 30 minutes, NADPH; for Dog (%) amount of substrate remaining after the reaction: dog liver microsomes 0.25 mg/mL; for Human (%) amount of substrate remaining after the reaction: human liver microsomes 0.25 mg/mL; for Mouse (%) amount of substrate remaining after the reaction: mouse liver microsomes 0.25 mg/mL; for Rat (%) amount of substrate remaining after the reaction: rat liver microsomes 0.25 mg/mL
Procedure: The stability of liver microsomes due to the compounds prepared according to Examples 1 to 57 was confirmed. Specifically, four types of liver microsomes (human, dog, rat, and mouse, each 0.25 mg/mL), a 0.1 M phosphate buffer solution (pH 7.4), and each of the compounds at a concentration of 1 μM were mixed and pre-cultured at 37° C. for 5 minutes and further cultured at 37° C. for 30 minutes together with an NADPH generation system solution added thereto. Thereafter, the reaction was terminated by adding an acetonitrile solution containing an internal standard material (chloropropamide) and centrifuged for 5 minutes (14,000 rpm, 4° C.), and then a supernatant was injected into an LC-MS/MS system for analysis of substrate drugs to thereby evaluate metabolic stability due to 8 types of compounds.
The amount of the substrate remaining after the reaction was analyzed using the Shimadzu Nexera XR system and TSQ Vantage (Thermo). In an HPLC column, Kinetex XB-C18 (2.1 mm×100 mm, particle size of 2.6 μm; Phenomenex, USA) was used, and mobile phases were (A) distilled water containing 0.1% formic acid and (B) acetonitrile containing 0.1% formic acid. Analyst software (version 1.6.3) and Xcalibur (version 1.6.1) were used for data analysis.

T1 sequence (P10636 1-441 isoform P10636-8): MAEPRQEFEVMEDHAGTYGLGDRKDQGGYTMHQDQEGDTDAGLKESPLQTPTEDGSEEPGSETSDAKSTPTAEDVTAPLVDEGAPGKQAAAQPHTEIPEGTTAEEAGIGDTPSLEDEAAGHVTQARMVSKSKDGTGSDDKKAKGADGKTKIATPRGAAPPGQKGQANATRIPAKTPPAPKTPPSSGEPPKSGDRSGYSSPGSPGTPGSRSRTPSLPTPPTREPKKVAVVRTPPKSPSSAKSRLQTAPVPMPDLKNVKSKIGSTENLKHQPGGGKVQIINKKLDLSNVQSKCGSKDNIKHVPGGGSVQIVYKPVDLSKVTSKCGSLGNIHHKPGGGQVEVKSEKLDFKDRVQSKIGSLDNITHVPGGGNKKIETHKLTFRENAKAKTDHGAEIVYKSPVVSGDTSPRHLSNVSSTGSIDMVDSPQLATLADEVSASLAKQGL

Compound	Cell viability (% @10 μM) [1]	Tau BiFC in cells Response (% @10 μM) [2]	IC50 [2]	Dog (%) amount of substrate remaining after the reaction [3]	Human (%) amount of substrate remaining after the reaction [3]	Mouse (%) amount of substrate remaining after the reaction [3]	Rat (%) amount of substrate remaining after the reaction [3]
N#CC(C#N)=NNc1ccc2c(c1)oc(=O)n2C(F)F [Compound 21, (3-(difluoromethyl)-2-oxo-2,3-dihydrobenzo[d]oxazol-6-yl)carbonohydrazonoyl dicyanide]	135%	0%	600 nM	72.1%	73.9%	71.8%	79.8%
Cn1c(=O)n(C)c2ncc(NN=C(C#N)C#N)cc21 [Compound 12, (1,3-dimethyl-2-oxo-2,3-dihydro-1H-imidazo[4,5-b]pyridin-6-yl)carbonohydrazonoyl dicyanide]	145.2%	0%	870 nM	>100%	>100%	>100%	94.9%
Cc1cc2c(NN=C(C#N)C#N)cccc2c(=O)n1C [Compound 7, (2,3-dimethyl-1-oxo-1,2-dihydroisoquinolin-5-yl)carbonohydrazonoyl dicyanide]	101.9%	0%	200 nM	95.7%	96%	93.3%	89.7%
CC(C)n1ccc2c(NN=C(C#N)C#N)cccc2c1=O [Compound 6, (2-isopropyl-1-oxo-1,2-dihydroisoquinolin-5-yl)carbonohydrazonoyl dicyanide]	118.1%	0%	700 nM	95%	94.2%	87%	>100%
CCn1c(=O)n(C(C)C)c2ncc(NN=C(C#N)C#N)cc21 [Compound 55, (1-ethyl-3-isopropyl-2-oxo-2,3-dihydro-1H-imidazo[4,5-b]pyridin-6-yl)carbonohydrazonoyl dicyanide]	124%	−32%	110 nM	–	85.5%	87.7%	91.8%
CC(C)n1c(=O)oc2cc(NN=C(C#N)C#N)ccc21 [Compound 20, (3-isopropyl-2-oxo-2,3-dihydrobenzo[d]oxazol-6-yl)carbonohydrazonoyl dicyanide]	106%	0%	100 nM	95.6%	98.1%	73.1%	73.3%
CC(C)n1c(=O)oc2ccc(NN=C(C#N)C#N)cc21 [Compound 29, (3-isopropyl-2-oxo-2,3-dihydrobenzo[d]oxazol-5-yl)carbonohydrazonoyl dicyanide]	133%	−31%	70 nM	–	>100%	88.9%	96.4%
COc1cc(NN=C(C#N)C#N)cc2c1n(C)c(=O)n2C [Compound 33, (7-methoxy-1,3-dimethyl-2-oxo-2,3-dihydro-1H-benzo[d]imidazol-5-yl)carbonohydrazonoyl dicyanide]	114%	−43%	5 nM	–	93.2%	78.7%	85.5%
CC(C)n1c(=O)n(C)c2ccc(NN=C(C#N)C#N)cc21 [Compound 36, (3-isopropyl-1-methyl-2-oxo-2,3-dihydro-1H-benzo[d]imidazol-5-yl)carbonohydrazonoyl dicyanide]	104%	−57%	20 nM	–	>100%	89.4%	86.4%
N#CC(C#N)=NNc1ccc2[nH]c(=O)sc2c1 [Compound 13, (2-oxo-2,3-dihydrobenzo[d]thiazol-6-yl)carbonohydrazonoyl dicyanide]	115.8%	0.8%	200 nM	>100%	>100%	>100%	>100%
